From patent US12162855B2, “Tetrahydroquinolino derivatives for the treatment of metastatic and chemoresistant cancers” (THE TRUSTEES OF PRINCETON UNIVERSITY, priority 2018, dated 2024) come the findings set out here.

Like-named read-outs stand apart in the source and are kept apart here.

For assay [1], the target named is T1, ALDH1a3 (Homo sapiens, UniProt P47895).
T1 construct: lentiviral vectors containing either the vector backbone or full-length human Aldh1a3; expressed in transfected cells; host or cells: SUM159-M1a (A1) and SUM159 (A7) breast cancer cells, lentiviral pLex vector, puromycin selection
T1 sequence (P47895 1-512): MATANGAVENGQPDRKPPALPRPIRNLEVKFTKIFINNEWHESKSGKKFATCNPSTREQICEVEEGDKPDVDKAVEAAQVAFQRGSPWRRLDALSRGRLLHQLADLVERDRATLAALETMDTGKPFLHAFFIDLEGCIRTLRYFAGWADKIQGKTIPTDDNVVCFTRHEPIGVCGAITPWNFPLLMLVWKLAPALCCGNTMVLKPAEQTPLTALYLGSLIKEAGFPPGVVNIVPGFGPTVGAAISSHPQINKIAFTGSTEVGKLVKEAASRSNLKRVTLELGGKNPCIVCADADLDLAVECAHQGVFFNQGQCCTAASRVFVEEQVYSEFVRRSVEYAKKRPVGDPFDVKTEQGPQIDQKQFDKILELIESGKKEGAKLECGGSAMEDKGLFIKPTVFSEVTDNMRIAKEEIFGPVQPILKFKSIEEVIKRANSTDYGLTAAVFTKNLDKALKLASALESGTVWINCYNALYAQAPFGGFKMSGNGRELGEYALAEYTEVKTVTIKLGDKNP
As to the kind of experiment: ALDEFLUOR assay in SUM159-M1a-Aldh1a3 cells (flow cytometry). It counts as cell-based. The conditions noted are these: for Percent of Cells Positive for ALDEFLUOR at 100 nM / inhibition at 0.1 µM: SUM159-M1a-Aldh1a3 cells, compound at 100 nM; for inhibition at 0.1 µM: read-out: Inhibitory Activity at 100 nM (%); for inhibition of ALDH1a3 activity (FIG. 1A): compounds at 100 nM; for lowest concentration at which inhibitory activity detected ([inh-min], FIG. 1B): threshold at lower bound of two standard deviations of control samples. As to the method: (§1) Cells were counted, centrifuged and resuspended at 1,000,000 cells/mL in ALDEFLUOR™ buffer (Stemcell Technologies). ALDEFLUOR™ substrate (Stemcell Technologies, 1:200) and test compound or 1 mM DEAB were added to cell suspension and incubated at 37° C. for 45 minutes with vortexing every 15 minutes. Cells were centrifuged and resuspended in ALDEFLUOR™ buffer with DAPI at 5 μg/mL. Samples were analyzed with the BD LSR2 flow cytometry platform. Gating was performed using DEAB as a negative control.
Gating for background fluorescence was performed using 1 millimolar DEAB as a negative control.
The [inh-min] threshold was set at the lower bound of two standard deviations of control samples, while the IC50 threshold was set at 50% of the average of control samples.
High activity was gated at the 99th percentile of cells at a MBE1.5 concentration of 10 nanomolar. The [inh-min] threshold was set at the lower bound of two standard deviations of control samples.
An ALDEFLUOR™ assay was also used to assess the relative activity of several compounds described herein against SUM159-M1a-Aldh1a3 cells. The activity of several compounds in the assay at a concentration of 100 nM is reported in Table 1, along with the chemical structure and compound name associated with each compound.
(Flow cytometry measures light scatter and fluorescence of single cells or particles in a stream.)

For assay [2], the target named is T1, ALDH1a3. As to the kind of experiment: ALDEFLUOR assay in MCF7 cells transduced with human Aldh1a3. It counts as cell-based. As to the method:
(§2) The coding sequences of Aldh1a1, Aldh1a2, Aldh1a3 and Aldh3a1 were cloned from cDNA made from pooled human reference RNA samples. Cloned sequences flanked by Age1 and Xho1 restriction sites were inserted into the pLex lentiviral plasmid. Clones were sequenced and compared against NCBI expressed sequence tags (ESTs) for accuracy. Viral production of each enzyme was performed by transfection into the 293T packaging cell line using PEI along with PsPax2 and VSVG packaging vectors. Viruses were collected and filtered at 0.45 μm, then cells were transduced using polybrene (8 μg/mL) for 12 hours, followed by culture with 1 μg/mL puromycin for the duration of experiments. All viral transduction and selection was performed on a cell population-wide basis.
as §1
ALDH isoforms 1a1, 1a2, 1a3 and 3a1 were expressed in MCF7 or SUM159 cells, which were subsequently used in an ALDEFLUOR™ assay.

Another assay deals with T2, Aldh1a2 (Homo sapiens, UniProt O94788).
T2 construct: expressed in transfected cells; host or cells: 293T, transient transfection
T2 sequence (O94788 1-518): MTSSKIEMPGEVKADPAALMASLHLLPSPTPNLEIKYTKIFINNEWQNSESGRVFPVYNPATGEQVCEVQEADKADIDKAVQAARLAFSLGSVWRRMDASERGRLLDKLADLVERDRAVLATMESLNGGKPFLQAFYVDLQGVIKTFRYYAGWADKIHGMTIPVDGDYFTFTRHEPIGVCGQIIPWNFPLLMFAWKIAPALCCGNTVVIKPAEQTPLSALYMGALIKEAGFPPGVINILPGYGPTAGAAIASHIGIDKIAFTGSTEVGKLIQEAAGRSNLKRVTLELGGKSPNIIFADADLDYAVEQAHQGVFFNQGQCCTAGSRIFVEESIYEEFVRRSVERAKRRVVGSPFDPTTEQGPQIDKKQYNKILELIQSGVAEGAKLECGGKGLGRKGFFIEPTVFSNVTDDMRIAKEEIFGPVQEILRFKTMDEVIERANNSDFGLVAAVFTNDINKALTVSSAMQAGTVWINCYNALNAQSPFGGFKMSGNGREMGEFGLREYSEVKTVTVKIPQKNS
Nature of the assay: ALDEFLUOR assay in 293T cells transiently transfected with human Aldh1a2. Format: cell-based. The conditions noted are these: concentrations below 10 μM. As to the method: as §2, §1

A further assay concerns bone marrow cells. As to the kind of experiment: Ex vivo analysis of ALDH activity in murine lymphocytes (ALDEFLUOR). Format: cell-based, mouse. As to the method:
Bone marrow cells were collected from 12-week old […] mice via tibia and femur flush with PBS and were passed through a 100-μm cell sieve. Thymocytes and spleenocytes were isolated from corresponding tissues and were isolated by physical disruption against a 100 μm cell sieve. Cells were washed via centrifugation/resuspension and then suspended at 10^7 cells/mL. The ALDEFLUOR™ assay with or without MBE1 was then conducted on these cells as described except with the addition of either […] (Biolegend #100308), anti-CD11c (BD Pharmigen #561119), anti-CD45 (eBioscience 30-F11), or anti-CD317 (Biolegend 129c1) during the incubation period at 1:200.
Similar results (not shown) were obtained in other populations tested, including CD45-positive and CD3e-positive (CD45+CD3e+) and CD11c-positive and CD317-positive (CD11+CD317+).

In general, IC50 refers to the point on the concentration scale where inhibition reaches its midpoint. For `CCc1ccccc1C(=O)Nc1cc2c(cc1F)NC(=O)CC2` [MBE1.5, 2-ethyl-N-(7-fluoro-2-oxo-1,2,3,4-tetrahydroquinolin-6-yl)benzamide], on ALDH1a3 [1], the “Percent of Cells Positive for ALDEFLUOR at 100 nM” value came to 0.03%; the inhibition at 0.1 µM is 100%; the “inhibition of ALDH1a3 activity (FIG. 1A)” value is listed as “high-affinity compounds for the inhibition of ALDH1a3 activity”; the “lowest concentration at which inhibitory activity detected ([inh-min], FIG. 1B)” value turned out to be 2 nM. For the same molecule, on ALDH1a3 [1] (dose titration, IC50 threshold at 50% of average of control samples, read-out: IC50 (percentage of ALDEFLUOR-positive cells, FIG. 1B)), the IC50 was 8 to 10 nM. Besides, the “inhibition of highly ALDH1a3-active cells (high ALDH percentage, FIG. 1C)” value against ALDH1a3 [1] (dose titration, high activity gated at 99th percentile at 10 nanomolar MBE1.5) was “more adept at inhibiting highly ALDH1a3-active cells than MBE1”. Further, on ALDH1a3 [2] (MCF7 cells expressing ALDH 1a1, 1a2, 1a3 or 3a1), the “isoform specificity, percentage of ALDEFLUOR-positive MCF7 cells (FIG. 13B)” value was “specifically inhibits ALDH1a3 at concentrations below 10 μM”. Moreover, the “inhibition of Aldh1a2 activity (FIG. 2B)” value against Aldh1a2 was “does not inhibit”. In addition, in the assay on bone marrow cells (murine bone marrow), the “effect on ALDEFLUOR activity of CD11c-positive bone marrow cells (FIG. 4B)” value is given as “not affected” and the “effect on ALDEFLUOR activity of CD45-positive bone marrow cells (FIG. 4A)” value is listed as “not affected”. Further, the “effect on ALDEFLUOR activity of all populations tested (incl. CD45+CD3e+, CD11+CD317+)” value in the assay with bone marrow cells (murine cells) is on record as “not affected”.

On to `CCc1cnccc1C(=O)Nc1cc2c(cc1F)NC(=O)CC2` [MBE1, 3-ethyl-N-(7-fluoro-2-oxo-1,2,3,4-tetrahydroquinolin-6-yl)isonicotinamide], for which, at ALDH1a3 [1], the half-inhibitory concentration (IC50) is 8 to 10 nM, the “Percent of Cells Positive for ALDEFLUOR at 100 nM” value was 0.73%, the inhibition at 0.1 µM turned out to be 99% and the “inhibition of ALDH1a3 activity (FIG. 1A)” value is “high-affinity compounds for the inhibition of ALDH1a3 activity”. Besides, on ALDH1a3 [1], the “lowest concentration at which inhibitory activity detected ([inh-min], FIG. 1B)” value came to 2 nM. Further, the “inhibition of Aldh1a3 activity (FIG. 2A)” value against ALDH1a3 [2] (MCF7 cells) is on record as “effective at inhibiting Aldh1a3 activity”.
